Starred links: 1 amine or outer side, 2 acyl side, 3 side chain; linkers in the order of their positions; H or OH if unused. Positions of bridges follow the written chain, without caps; N, C: chain ends. Non-standard residues stand in square brackets, D forms with d. Residues, ends and D or L forms follow the SMILES beside them. *: point of attachment. X1 = CC(C)(C)OC(=O)N[C@H](CCC(=O)[*:1])C(=O)[*:2]; sY = N[C@@H](Cc1ccc(OS(=O)(=O)O)cc1)C(=O)O; Nle = CCCC[C@H](N)C(=O)O; Boc = CC(C)(C)OC(=O)*
How the values were obtained:
[1] = target: cholecystokininergic receptors of the central nervous system (guinea-pig brain cortex); assay: Binding test, competition with [3H]BOC-[NLe28,31]CCK27-33 on guinea-pig brain cortex; settings: for Ki: [3H]BOC-[NLe28,31]CCK27-33 at 0.2 nM, guinea-pig brain cortex; for Selectivity factor: ratio given as drawing 11, matches KI pancreatic acini / KI cortex
Description: (§1) The products of the invention are tested in competitive experiments with respect to the ligand [^3 H]BOC-[NLe^28,31 ]CCK27-33 on guinea-pig brain cortex and guinea-pig pancreatic acini. […] The [^3 H]BOC-[NLe^28,31 ]CCK27-33 was used at a concentration of 0.2 nM for the brain and 0.5 nM for the pancreas.

[2] = target: guinea-pig pancreatic acini; assay: Test of release of pancreatic amylase; type: cell-based; settings: acini incubated 30 minutes at 37° C.; mean of 3 independent experiments in triplicate; read-out: Secretion of pancreatic amylase by guinea-pig acini, agonist activity EC50
Description: J. Physiol., 235, E 743 (1978). The acini are incubated for 30 minutes at 37° C. in the presence of the test product at different doses, according to the method described by GARDNER and JACKSON, J. Physiol., 270, 439 (1977). The amylase activity is determined using the PHADEBAS reagent (Pharmacia) according to the method described by CESKA et al., Experientia, 25, 555 (1969).
The values shown in this table represent the mean of 3 independent experiments, each performed in triplicate.

guinea-pig ileum = assay: Test of contraction-inducing activity on guinea-pig ileum; settings: mean (±S.E.M.) of 3 independent experiments; read-out: Contraction-inducing activity on guinea-pig ileum, agonist activity EC50
Description: This test is carried out according to the method described by HUTCHINSON et al., Eur. J. Pharmacol., 69, 87 (1981). Strips of guinea-pig ileum of the terminal portion are rapidly removed and attached in the cell of an isometric gauge containing 25 cm^3 of Tyrode's solution. The solution is maintained at 37° C. while a stream of a gas composed of 95% oxygen and 5% CO2 is passed through bubble by bubble. The test compounds are tested under the conditions described by RUIZ-GAYO et al., Peptides, 6, 415 (1985).
The values shown in this table for the agonist activity represent the mean (±S.E.M.) of 3 independent experiments.

[3] = target: T1, peripheral cholecystokininergic receptors (guinea-pig pancreatic acini) (Cavia porcellus, UniProt Q63931); assay: Binding test, competition with [3H]BOC-[NLe28,31]CCK27-33 on guinea-pig pancreatic acini; settings: [3H]BOC-[NLe28,31]CCK27-33 at 0.5 nM
T1 construct: on guinea-pig brain cortex and guinea-pig pancreatic acini; from tissue; host or cells: guinea-pig pancreatic acini
T1 sequence (Q63931 1-430): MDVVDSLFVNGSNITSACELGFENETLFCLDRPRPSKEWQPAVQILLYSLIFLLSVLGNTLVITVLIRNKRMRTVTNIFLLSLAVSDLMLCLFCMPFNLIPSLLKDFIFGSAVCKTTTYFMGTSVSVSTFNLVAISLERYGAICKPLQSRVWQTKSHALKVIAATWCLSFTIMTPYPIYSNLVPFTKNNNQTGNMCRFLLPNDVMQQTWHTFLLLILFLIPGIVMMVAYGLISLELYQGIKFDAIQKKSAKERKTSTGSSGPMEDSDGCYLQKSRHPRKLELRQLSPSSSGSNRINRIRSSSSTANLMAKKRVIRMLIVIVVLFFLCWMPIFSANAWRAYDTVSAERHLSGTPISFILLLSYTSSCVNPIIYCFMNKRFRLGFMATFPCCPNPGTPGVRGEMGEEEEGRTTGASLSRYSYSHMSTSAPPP
Description: as §1

| Compound | Ki [1] | Selectivity factor [1] | EC50 [2] | EC50 (guinea-pig ileum) | Ki [3] |
| --- | --- | --- | --- | --- | --- |
| CCCC[C@H](NC(=O)[C@H](Cc1c[nH]c2ccccc12)NC(=O)[C@H]1CCCCNC(=O)C[C@@H](NC(=O)OC(C)(C)C)C(=O)N[C@@H](Cc2ccc(OS(=O)(=O)O)cc2)C(=O)N[C@@H](CCCC)C(=O)N1)C(=O)N[C@@H](CC(=O)O)C(=O)N[C@@H](Cc1ccccc1)C(N)=O [Example 5] (Boc-[dD][sY][Nle][dK]W[Nle]DF-NH2; lactam 1-4; N-terminus assumed) | 5.1 nM | 179 | < 10000 nM | > 10000 nM | – |
| CCCC[C@H](NC(=O)[C@H](Cc1c[nH]c2ccccc12)NC(=O)[C@H]1CCCCNC(=O)[C@H](NC(=O)OC(C)(C)C)CCC(=O)N[C@@H](Cc2ccc(OS(=O)(=O)O)cc2)C(=O)N[C@@H](CCCC)C(=O)N1)C(=O)N[C@@H](CC(=O)O)C(=O)N[C@@H](Cc1ccccc1)C(N)=O [Example 16] ([sY][Nle][dK]W[Nle]DF-NH2; linker N-3 via X1; C-terminus assumed) | 0.49 nM | 1970 | – | > 10000 nM | – |
| CCCC[C@H](NC(=O)[C@H](Cc1c[nH]c2ccccc12)NC(=O)[C@H]1CCCCNC(=O)CC[C@@H](NC(=O)OC(C)(C)C)C(=O)N[C@@H](Cc2ccc(OS(=O)(=O)O)cc2)C(=O)N[C@@H](CCCC)C(=O)N1)C(=O)N[C@@H](CC(=O)O)C(=O)N[C@@H](Cc1ccccc1)C(N)=O [Example 7] (Boc-[dE][sY][Nle][dK]W[Nle]DF-NH2; lactam 1-4; N-terminus assumed) | 6.3 nM | 160 | – | > 10000 nM | – |
| CCCC[C@H](NC(=O)[C@H](Cc1c[nH]c2ccccc12)NC(=O)[C@H]1CCCCNC(=O)[C@H](NC(=O)OC(C)(C)C)CCC(=O)N[C@@H](Cc2ccc(O)cc2)C(=O)N[C@@H](CCCC)C(=O)N1)C(=O)N[C@@H](CC(=O)O)C(=O)N[C@@H](Cc1ccccc1)C(N)=O [Example 15] (Y[Nle][dK]W[Nle]DF-NH2; linker N-3 via X1) | – | – | – | – | 860 nM |
